Assay results reported in ChEMBL document CHEMBL1201862, “PubChem BioAssay data set” (2004).
Calls of active or inactive are those of the source.

Key:
HeLa = assay: ATP-based viability loss in HeLa cells – cell-based, CellTiter-Glo luminescence, cherry-pick samples, cytotoxicity control for MITF activator project, dose response (AID 540259); type: functional; conditions: Homo sapiens
[1] = biological target: UDP-galactopyranose mutase (Mycobacterium tuberculosis, UniProt P9WIQ1); assay: Inhibitors of Mycobacterium tuberculosis UDP-galactopyranose mutase (UGM) enzyme Measured in Biochemical System Using Plate Reader - 2105-02_Inhibitor_Dose_CherryPick_Activity. [Related pubchem assays (depositor defined):AID504439]
[2] = biological target: T1, Corticotropin-releasing factor receptor 2/Corticotropin-releasing factor-binding protein (Homo sapiens, UniProt P24387+Q13324); assay: activators of CRF receptor 2 with binding protein – uHTS hits, confirmation (AID 602473); type: functional; conditions: read-out: EC50_Mean
T1 sequence (Q13324 whole entry): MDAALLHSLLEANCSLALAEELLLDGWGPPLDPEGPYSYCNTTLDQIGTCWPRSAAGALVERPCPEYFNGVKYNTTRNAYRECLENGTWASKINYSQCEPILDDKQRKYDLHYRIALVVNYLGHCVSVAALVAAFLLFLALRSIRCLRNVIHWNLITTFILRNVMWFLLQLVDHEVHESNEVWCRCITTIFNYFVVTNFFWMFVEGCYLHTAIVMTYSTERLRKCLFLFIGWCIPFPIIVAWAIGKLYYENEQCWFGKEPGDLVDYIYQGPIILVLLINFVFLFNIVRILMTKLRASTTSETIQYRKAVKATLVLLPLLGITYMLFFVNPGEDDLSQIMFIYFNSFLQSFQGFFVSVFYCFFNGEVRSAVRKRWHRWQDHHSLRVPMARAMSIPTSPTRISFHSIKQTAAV
T1 sequence (P24387 whole entry): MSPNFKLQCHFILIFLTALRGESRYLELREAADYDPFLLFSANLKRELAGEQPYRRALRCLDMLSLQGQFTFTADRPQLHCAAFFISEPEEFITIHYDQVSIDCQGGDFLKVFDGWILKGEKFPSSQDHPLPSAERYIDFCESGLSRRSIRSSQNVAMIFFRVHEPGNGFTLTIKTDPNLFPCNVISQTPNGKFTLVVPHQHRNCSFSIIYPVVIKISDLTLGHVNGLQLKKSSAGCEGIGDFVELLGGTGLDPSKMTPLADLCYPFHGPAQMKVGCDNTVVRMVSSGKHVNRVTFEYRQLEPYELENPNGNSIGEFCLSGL

[3] = biological target: Glucose-6-phosphate 1-dehydrogenase (Homo sapiens, UniProt P11413); assay: inhibition of Homo sapiens G6PD, dose series – biochemical, fluorescence, selectivity assay for P. falciparum G6PD inhibitor project, dose response (AID 504792); type: functional
Escherichia coli = assay: microbe, parasite or virus in culture

Sequence of Glucose-6-phosphate 1-dehydrogenase (P11413 whole entry): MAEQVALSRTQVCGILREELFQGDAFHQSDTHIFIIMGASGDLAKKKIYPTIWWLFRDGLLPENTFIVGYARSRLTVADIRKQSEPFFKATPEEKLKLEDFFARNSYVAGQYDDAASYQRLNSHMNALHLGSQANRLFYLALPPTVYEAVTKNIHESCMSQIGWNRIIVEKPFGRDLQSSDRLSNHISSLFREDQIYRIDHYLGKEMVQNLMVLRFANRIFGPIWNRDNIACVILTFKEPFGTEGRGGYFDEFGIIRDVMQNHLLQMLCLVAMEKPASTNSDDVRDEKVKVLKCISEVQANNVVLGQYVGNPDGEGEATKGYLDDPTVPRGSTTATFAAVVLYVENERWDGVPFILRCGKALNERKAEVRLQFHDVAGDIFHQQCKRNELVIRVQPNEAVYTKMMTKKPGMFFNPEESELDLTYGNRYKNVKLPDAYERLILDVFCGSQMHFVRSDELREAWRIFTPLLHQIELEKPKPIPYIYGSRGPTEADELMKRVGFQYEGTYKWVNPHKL
Sequence of UDP-galactopyranose mutase (P9WIQ1 whole entry): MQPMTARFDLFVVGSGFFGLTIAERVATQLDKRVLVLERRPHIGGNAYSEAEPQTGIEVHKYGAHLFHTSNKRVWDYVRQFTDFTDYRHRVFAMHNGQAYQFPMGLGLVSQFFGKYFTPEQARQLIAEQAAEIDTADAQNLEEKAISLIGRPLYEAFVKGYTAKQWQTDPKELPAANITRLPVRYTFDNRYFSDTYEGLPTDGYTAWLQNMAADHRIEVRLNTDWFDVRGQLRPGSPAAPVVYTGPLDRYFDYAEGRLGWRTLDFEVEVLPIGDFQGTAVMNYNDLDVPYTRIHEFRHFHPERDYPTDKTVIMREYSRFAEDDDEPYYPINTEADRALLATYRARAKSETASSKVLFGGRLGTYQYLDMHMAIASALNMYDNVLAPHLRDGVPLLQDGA

SMILES: COc1ccc(OCc2cc(C(=O)NC(C)c3cnn(C)c3)no2)c(Cl)c1 (stereo unspecified)
- AC50 (HeLa): 79.6 µM (active)

SMILES: N#C/C(=C\C=C\c1ccccc1)c1nc(-c2ccc3c(c2)OCO3)cs1
- AC50 [1]: 38.5 µM (active)
- EC50 [2]: 9.03 µM (active)

SMILES: COc1cc(-c2nnc3n2N=C(c2ccccc2)CS3)cc(OC)c1OC
- IC50 [3]: > 80 µM (inactive)

SMILES: O=C(c1cnn2ccccc12)N1CCc2ccccc21
- AC50 (HeLa): 58.6 µM (active)

SMILES: COc1ccccc1NC(=S)NC(=O)C(C)C
- AC50 (Escherichia coli): 50.3 µM (active)
